One series in a line: in vitro. The series is classed as cell-based. To be noted: human, HepG2 or HepG2.117 cells, ATPlite, mean value. Summed up: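 Luminescent ATP quantitation served as the viability endpoint following a 3- or 4-day incubation with test compounds.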
On the technique in general: Cellular ATP, detected with luciferase, serves as a proxy for viable cell number.

Series [1] concerns HBV (HepG2.117 cell line, inducibly HBV producing). As to the kind of experiment: Anti-HBV activity: intracellular HBV DNA by real-time PCR in HepG2.117 cells after 3 days of treatment. The series is classed as cell-based, hepatitis B virus. The gist of the method: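 First, HBV replication is induced in HepG2.117 cells by doxycycline absence. Next, serially diluted compound is added for 3 days. Finally, intracellular HBV DNA is quantified by HBV-specific real-time PCR.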
Background: Real-time PCR tracks product formation cycle by cycle.

[2] abbreviates: 3-days incubation (unmarked values).
Setting [3] is: Hepatitis B virus, HepG2.117, 72 h, HepG2.117 cells, 3 days of treatment, intracellular HBV DNA by real-time PCR; mean value; read-out: EC50 (μM, mean value).
[4] abbreviates: 3-days incubation (not marked with *).
Setting [5] is: Hepatitis B virus, HepG2.117, 72 h, HepG2.117 cells, intracellular HBV DNA by real-time PCR, 3 days of treatment, mean value; read-out: EC50 (μM, mean value).

Structures are written as SMILES. Read-outs that look alike come from different tables or passages of the source. Bounds are passed on as bounds.

For orientation: CC50 means the concentration at which the toxic effect on the cells reaches its halfway point. A lower CC50 goes with greater toxicity to the cells. As usually defined, the EC50 is the concentration needed to bring the measured effect to its halfway point. In the series “in vitro” (setting [2]), `CNC(=O)OCC[C@H](Nc1nc2c(c(=O)n1-c1ccc(C(=O)NC)cc1)C[C@@H](C)N(C(=O)c1ccc(Cl)c(Cl)c1)C2)C1CC1` (single isomer, unassigned) [Compound C257, (3*S)-3-cyclopropyl-3-({(6R)-7-(3,4-dichlorobenzoyl)-6-methyl-3-[4-(methylcarbamoyl)phenyl]-4-oxo-3,4,5,6,7,8-hexahydropyrido[3,4-d]pyrimidin-2-yl}amino)propyl methylcarbamate] yielded a CC50 at 3 days above 50 µM. Moreover, the EC50 in series [1] (setting [3]) was found to be 0.84 µM.

In “in vitro” (setting [2]), `COc1ccc(CNc2nc3c(c(=O)[nH]2)CCN(C(=O)c2ccc(C(F)(F)F)cc2)C3)cc1` [Compound C118, 2-{[(4-methoxyphenyl)methyl]amino}-7-[4-(trifluoromethyl)benzoyl]-5,6,7,8-tetrahydropyrido[3,4-d]pyrimidin-4(3H)-one] registered a CC50 at 3 days of 39 µM. Further, in series [1] (setting [3]), the concentration giving a half-maximal response (EC50) was 22 µM.

On to `CNC(=O)c1ccc(-n2c(NC(C)C)nc3c(c2=O)C[C@@H](C)N(C(=O)c2cc4ccc(Cl)c(F)c4[nH]2)C3)cc1` [Compound C594], for which, in the series “in vitro” (setting [4]), the midpoint of cytotoxicity, the CC50 at 3 days, lay at 26.1 µM. In series [1] (setting [5]), the EC50 was 0.04 µM.

The compound `CNC(=O)c1ccc(-n2c(N[C@@H](C)c3cccc(C(F)F)c3)nc3c(c2=O)C[C@@H](C)N(C(=O)c2ccc(Cl)c(Cl)c2)C3)cc1` (single isomer, unassigned) [Compound C660b] came in with a CC50 at 3 days in the series “in vitro” (setting [4]) of 27.5 µM. In addition, in series [1] (setting [5]), the EC50 came to 0.32 µM.

`COc1ccc(CNc2nc3c(c(=O)n2-c2cccnc2)CCN(C(=O)c2ccc(Cl)c(Cl)c2)C3)cc1` [Compound C68, 7-(3,4-dichlorobenzoyl)-2-{[(4-methoxyphenyl)methyl]amino}-3-(pyridin-3-yl)-5,6,7,8-tetrahydropyrido[3,4-d]pyrimidin-4(3H)-one] gave a CC50 at 3 days in the series “in vitro” (setting [2]) of 22.4 µM. Besides, the EC50 in series [1] (setting [3]) is 0.66 µM.

`CNC(=O)c1ccc(-n2c(NC(C)C)nc3c(c2=O)C[C@@H](C)N(C(=O)c2ccc(Br)cc2)C3)cc1` [Compound C563] had a CC50 at 3 days in “in vitro” (setting [4]) above 50 µM. In series [1] (setting [5]), the EC50 is 0.26 µM.

For `CNC(=O)c1ccc(-n2c(N[C@@H](C)c3cccnc3OC)nc3c(c2=O)C[C@@H](C)N(C(=O)c2ccc(Cl)c(Cl)c2)C3)cc1` (relative stereo) [Compound C286, 4-[(rt)-7-(3,4-dichlorobenzoyl)-2-{[(1*S)-1-(2-methoxypyridin-3-yl)ethyl]amino}-6-methyl-4-oxo-5,6,7,8-tetrahydropyrido[3,4-d]pyrimidin-3(4H)-yl]-N-methylbenzamide], it took 29 µM to reach half-maximal cytotoxicity in the series “in vitro” (setting [2]) (CC50 at 3 days). Moreover, the EC50 in series [1] (setting [3]) was 0.12 µM.

Take `CNC(=O)c1ccc(-n2c(N3CCC[C@@H]3C)nc3c(c2=O)C[C@@H](C)N(C(=O)c2ccc(Cl)c(Cl)c2)C3)cc1` [Compound C271, 4-[(6R)-7-(3,4-dichlorobenzoyl)-6-methyl-2-[(2S)-2-methylpyrrolidin-1-yl]-4-oxo-5,6,7,8-tetrahydropyrido[3,4-d]pyrimidin-3(4H)-yl]-N-methylbenzamide]: in the series “in vitro” (setting [2]), the CC50 at 3 days came out at 24.9 µM. Also, the EC50 in series [1] (setting [3]) was 0.27 µM.

As for `CNC(=O)c1ccc(-n2c(NC(C)c3ccc(OC)cc3)nc3c(c2=O)C[C@@H](C)N(C(=O)c2ccc(Cl)c(Cl)c2)C3)cc1` (stereo partly drawn) [Compound C346, 4-[(6R)-7-(3,4-dichlorobenzoyl)-2-{[1-(4-methoxyphenyl)ethyl]amino}-6-methyl-4-oxo-5,6,7,8-tetrahydropyrido[3,4-d]pyrimidin-3(4H)-yl]-N-methylbenzamide], the midpoint of cytotoxicity in the series “in vitro” (setting [2]), the CC50 at 3 days, lay at 36.3 µM. The EC50 in series [1] (setting [3]) was found to be 0.13 µM.

For the compound `COc1ccc(CNc2nc3c(c(=O)n2C2CCCN(S(C)(=O)=O)C2)CCN(C(=O)c2ccc(Cl)c(Cl)c2)C3)cc1` (stereo not drawn) [Compound C83, 7-(3,4-dichlorobenzoyl)-3-[1-(methanesulfonyl)piperidin-3-yl]-2-{[(4-methoxyphenyl)methyl]amino}-5,6,7,8-tetrahydropyrido[3,4-d]pyrimidin-4(3H)-one], the CC50 at 3 days in “in vitro” (setting [2]) was above 50 µM. Also, the EC50 in series [1] (setting [3]) was determined as 1.44 µM.

With `COc1ccc(CNc2nc3c(c(=O)n2-c2ccncc2)CCN(C(=O)c2ccc(Cl)c(Cl)c2)C3)cc1` [Compound C123, 7-(3,4-dichlorobenzoyl)-2-{[(4-methoxyphenyl)methyl]amino}-3-(pyridin-4-yl)-5,6,7,8-tetrahydropyrido[3,4-d]pyrimidin-4(3H)-one], the cytotoxic concentration (CC50) at 3 days in “in vitro” (setting [2]) worked out at 24.4 µM. Moreover, the EC50 in series [1] (setting [3]) turned out to be 1.23 µM.

As for `COc1ccccc1-n1c(N[C@@H](C)c2ccccc2)nc2c(c1=O)CCN(C(=O)c1ccc(Cl)c(Cl)c1)C2` [Compound C35, 7-(3,4-dichlorobenzoyl)-3-(2-methoxyphenyl)-2-{[(1S)-1-phenylethyl]amino}-5,6,7,8-tetrahydropyrido[3,4-d]pyrimidin-4(3H)-one], the CC50 at 3 days in “in vitro” (setting [2]) was 33.2 µM. Also, in series [1] (setting [3]), the EC50 came to 1.41 µM.

Compound `CNC(=O)c1ccc(-n2c(N3CC4CC3(C)C4)nc3c(c2=O)C[C@@H](C)N(C(=O)c2ccc(Cl)c(Cl)c2)C3)cc1` [Compound C444] yielded a CC50 at 3 days in the series “in vitro” (setting [4]) of 37.6 µM. For the same compound, the EC50 in series [1] (setting [5]) turned out to be 0.06 µM.

`Cc1cc(-c2ccc(-n3c(NC(C)C)nc4c(c3=O)C[C@@H](C)N(C(=O)c3ccc(Cl)c(Cl)c3)C4)cc2)on1` [Compound C246, (6R)-7-(3,4-dichlorobenzoyl)-6-methyl-3-[4-(3-methyl-1,2-oxazol-5-yl)phenyl]-2-[(propan-2-yl)amino]-5,6,7,8-tetrahydropyrido[3,4-d]pyrimidin-4(3H)-one] came in with a CC50 at 3 days in the series “in vitro” (setting [2]) above 50 µM. Further, in series [1] (setting [3]), the EC50 amounted to 0.19 µM.

Compound `CNC(=O)c1ccc(-n2c(N[C@@H](C)c3ccc(C(F)(F)F)cc3)nc3c(c2=O)C[C@@H](C)N(C(=O)c2ccc(Cl)c(Cl)c2)C3)nc1` [Compound C655] gave a CC50 at 3 days in the series “in vitro” (setting [4]) of 9.1 µM. For the same compound, the EC50 in series [1] (setting [5]) was determined as 0.08 µM.

In “in vitro” (setting [2]), `CC(C)Nc1nc2c(c(=O)n1-c1ccc(-c3n[nH]c(Br)n3)cc1)C[C@@H](C)N(C(=O)c1ccc(Cl)c(Cl)c1)C2` [Compound C249, (6R)-3-[4-(5-bromo-1H-1,2,4-triazol-3-yl)phenyl]-7-(3,4-dichlorobenzoyl)-6-methyl-2-[(propan-2-yl)amino]-5,6,7,8-tetrahydropyrido[3,4-d]pyrimidin-4(3H)-one] came in with a CC50 at 3 days above 50 µM. For the same compound, the EC50 in series [1] (setting [3]) was determined as 0.49 µM.

As for `CNC(=O)c1ccc(-n2c(N[C@H](C)c3cccnc3OC)nc3c(c2=O)C[C@@H](C)N(C(=O)c2ccc(Cl)c(Cl)c2)C3)cc1` (single isomer, unassigned) [Compound C285, 4-[(6R)-7-(3,4-dichlorobenzoyl)-2-{[(1*R)-1-(2-methoxypyridin-3-yl)ethyl]amino}-6-methyl-4-oxo-5,6,7,8-tetrahydropyrido[3,4-d]pyrimidin-3(4H)-yl]-N-methylbenzamide], the midpoint of cytotoxicity in the series “in vitro” (setting [2]), the CC50 at 3 days, lay at 27.6 µM. Further, the EC50 in series [1] (setting [3]) amounted to 0.37 µM.

In turn, `CC(C)Nc1nc2c(c(=O)n1-c1ccc(S(C)(=O)=O)cc1)CCN(C(=O)C1Cc3ccccc3O1)C2` (stereo not drawn) [Compound C360] yielded a CC50 at 3 days in the series “in vitro” (setting [2]) above 50 µM. The EC50 in series [1] (setting [3]) was above 50 µM.

As to `CNC(=O)c1ccc(-n2c(N[C@H](C)c3ccc(C(F)(F)F)c(Cl)c3)nc3c(c2=O)C[C@@H](C)N(C(=O)c2ccc(Cl)c(Cl)c2)C3)cc1` (single isomer, unassigned) [Compound C664a], in the series “in vitro” (setting [4]), the CC50 at 3 days turned out to be 6.7 µM. The EC50 in series [1] (setting [5]) is 0.13 µM.

Compound `CNC(=O)c1ccc(-n2c(NC(C)(C)C)nc3c(c2=O)C[C@@H](C)N(C(=O)c2ccc(Cl)c(C(F)(F)F)c2)C3)c(Cl)c1` (single isomer, unassigned) [Compound C677b] had a CC50 at 3 days in the series “in vitro” (setting [4]) of 24 µM. Further, the EC50 in series [1] (setting [5]) is 0.02 µM.

In the case of `CNC(=O)c1ccc(-n2c(NC(C)C)nc3c(c2=O)C[C@@H](C)N(C(=O)c2cc4c(C)cc(F)cc4[nH]2)C3)cc1` [Compound C564], in the series “in vitro” (setting [4]), the CC50 at 3 days worked out at 21.7 µM. For the same compound, the EC50 in series [1] (setting [5]) was 0.02 µM.

As for `CNC(=O)c1ccc(-n2c(N[C@@H](C)c3ccc(OC)c(OC)c3)nc3c(c2=O)C[C@@H](C)N(C(=O)c2ccc(Cl)c(Cl)c2)C3)cc1` (single isomer, unassigned) [Compound C415b], in the series “in vitro” (setting [4]), it took 27.6 µM to reach half-maximal cytotoxicity (CC50 at 3 days). In series [1] (setting [5]), the EC50 was determined as 0.12 µM.

`CNC(=O)c1cnc(-n2c(N[C@@H](C)c3ccc(F)cc3)nc3c(c2=O)C[C@@H](C)N(C(=O)c2ccc(Cl)c(Cl)c2)C3)cn1` [Compound C614] registered a CC50 at 3 days in “in vitro” (setting [4]) above 50 µM. Besides, the concentration for a half-maximal effect (EC50) in series [1] (setting [5]) came to 0.09 µM.

In the series “in vitro” (setting [2]), `COc1ccc(CNc2nc3c(c(=O)n2C2CCCCC2)CCN(C(=O)c2ccc(Cl)c(Cl)c2)C3)cc1` [Compound C64, 3-cyclohexyl-7-(3,4-dichlorobenzoyl)-2-{[(4-methoxyphenyl)methyl]amino}-5,6,7,8-tetrahydropyrido[3,4-d]pyrimidin-4(3H)-one] came in with a CC50 at 3 days above 50 µM. The EC50 in series [1] (setting [3]) came out at 8.91 µM.

`CNC(=O)c1ccc(-n2c(N[C@H]3CCOc4ccccc43)nc3c(c2=O)C[C@@H](C)N(C(=O)c2ccc(Cl)c(Cl)c2)C3)cc1` (single isomer, unassigned) [Compound C526b] displayed a CC50 at 3 days in “in vitro” (setting [4]) of 16.3 µM. The EC50 in series [1] (setting [5]) came out at 5.42 µM.

`CNC(=O)c1ccc([C@@H](C)Nc2nc3c(c(=O)n2-c2ccc(C(=O)NC)cc2)C[C@@H](C)N(C(=O)c2ccc(Cl)c(Cl)c2)C3)cc1` (single isomer, unassigned) [Compound C530a] showed a CC50 at 3 days in “in vitro” (setting [4]) above 50 µM. Also, in series [1] (setting [5]), the EC50 was above 7.4 µM.

`CNC(=O)c1ccc(-n2c(NCc3csc(C4CC4)n3)nc3c(c2=O)C[C@@H](C)N(C(=O)c2ccc(Cl)c(Cl)c2)C3)cc1` [Compound C490] showed a CC50 at 3 days in “in vitro” (setting [4]) of 28.4 µM. In series [1] (setting [5]), the EC50 is 0.89 µM.

The record behind these values is patent publication US20230091047A1 (priority 2019, published 2023).
